The values that follow come from patent US7618643B2, “Growth factor delivery system for the healing of wounds and the prevention of inflammation and disease” (DirectContact LLC, priority 2002, dated 2009).

For data set [1], the system named is rabbit corneal epithelial cells. Put plainly: in vitro wound closure, epithelial cell sheets contacted with contact lenses. It is filed as cell-based. Particulars: for healing: lens soaked in 10 ng/μL EGF. The procedure: (§1) Ocular cells were placed into a sterile plastic dish. This dish contained a 5-mm disk. The purpose of the disk was to prevent cells from growing in the covered area. When the disk was removed, a 5-mm “wound” or “hole” was present.
(§2) Contact lenses were then added to these cell sheets with the wounds. The lenses were left in contact with the cell sheets for a minimum of 30 minutes. Minimal medium was used to maintain the cell cultures. Cells were incubated at 35° C.±2° C. in 5% CO2. […] The contact lenses used were polymacon B, vifilcon A, and lidofilcon A hydrogel polymers.
(§3) The cell sheets were then viewed over time, and the diameter of the hole was measured.
(§4) The results are expressed in terms of closure of the in vitro wound over time.
Epithelial Cells and Tissue. Epithelial (rabbit corneal epithelial cells) cells were seeded on a dish and contacted with control and EGF-containing contact lenses. […] At 72 hours, there was a 43% difference in the closure rate between the EGF-treated epithelial tissue and the controls. The hydrogel material that was used was vifilcon A, an ionic polymer with a water content of 55%.
(§5) Closure rates were calculated by direct measurement of the diameter of the wound. Measurements were taken daily.

Data set [2] has as its system bovine corneal endothelial cells. Put plainly: in vitro wound closure, endothelial cell sheets contacted with contact lenses. It is filed as cell-based. The procedure: as §1, §2, §3, §4, §5
Endothelial Cells and Tissue.

Data set [3] deals with New Zealand white rabbits, eyes abraded with a needle. Put plainly: rabbit model, eyes abraded with a needle, medicated contact lens in right eye. The format is in vivo.
Protocol: New Zealand white rabbits were anesthetized, and then both eyes were abraded with a needle. A control contact lens was placed in the left eye, and a medicated contact lens was placed in the right eye of each rabbit for up to 4 hours prior to euthanasia. Control contact lenses (etafilcon A, an ionic lens with 58% water content) were washed with phosphate-buffered saline (PBS) prior to insertion. […] Rabbits were visually scored on a 0-4 scale (0 being the best and 4 being the worst) for corneal edema (which is a measure of wound healing), inflammation, and exudate production.
The subject of data set [4] is recurring epithelial defect. Put plainly: human testing of medicated lens. It is filed as in vivo. The settings on record: polymacon B lens soaked in 400 ppb EGF for 24 hours; one human patient; one administration. The procedure:
This lens was placed in a human patient suffering from a recurring epithelial defect that was not responsive to traditional medical treatments. […] Desirably treatment lasts for at least one hour. This type of injury is normally treated by the repeated introduction of eye drops, sometimes as often as every 4-5 minutes. A contact lens of the present invention, however, was able to produce a positive result with only one administration.

Where [5] appears, read: vifilcon A lens soaked in 10 ng/μL EGF, 48 hours.
[6] abbreviates: vifilcon A lens soaked in 10 ng/μL EGF, 72 hours.
Where [7] appears, read: polymacon B lens soaked in 10 ng/μL EGF, 72 hours.
Setting [8] is: contact lens, 400 ppb HGH soak, right eye.

In the case of epidermal growth factor [EGF], the healing came to 14% in data set [1] (48 hours) and 25% in data set [1] (72 hours). Moreover, in data set [1] (vifilcon A lens soaked in 5.0 ng/μL EGF, 48 hours), the “closure rate difference between controls and EGF treated” value stood at 21%. The “difference in the closure rate” value in data set [1] (vifilcon A lens soaked in 5.0 ng/μL EGF, 72 hours) was found to be 21%. Moreover, the “difference in the closure rate between EGF-treated and non-EGF treated cells” value in data set [1] (setting [5]) was 25%. Further, the “difference in the closure rate between EGF-treated and controls” value in data set [1] (setting [6]) is recorded as 43%. For the same substance, the “difference in the healing rates compared to a wound not contacted with any lens” value in data set [1] (vifilcon A lens with EGF, 48 hours) is 31%. For the same substance, in data set [2] (lidofilcon A lens soaked in 10 ng/μL EGF, 48 hours), the “increase in the healing rate (wound closure rate) compared to controls” value is listed as 54%. Moreover, the “difference in healing rate compared to controls” value in data set [2] (lidofilcon A lens soaked in 10 ng/μL EGF, 72 hours) stood at 44%. For the same substance, the “difference in closure between treated and untreated groups” value in data set [2] (setting [7]) turned out to be 62%. In data set [2] (setting [7]), this substance came in with a wound closed of 80%. In addition, in data set [2] (vifilcon A lens soaked in 5 ng/μL EGF, 48 hours), the “difference in closure rate between EGF treated group and controls” value is listed as 31%. Besides, the tissue healed in data set [2] (vifilcon A lens soaked in 5 ng/μL EGF, 72 hours) was 53%; in data set [2] (setting [6]) it was “completely healed”. The “difference in healing rates compared to a control” value in data set [2] (setting [5]) worked out at 73%. In addition, the “wound healing compared to control eyes” value in data set [3] (etafilcon A lenses soaked in 400 ppb EGF, first two hours after treatment) is “healed wounds at an accelerated rate”. In addition, the toxicity in rabbits result in data set [3] (etafilcon A lenses soaked in 400 ppb, 4 ppm or 10 ppm EGF) is on record as “No toxicity was observed”. Besides, in data set [4], the “clinical efficacy (wound healing)” value is “Clinical efficacy (i.e., wound healing) was observed”.
human growth hormone [HGH]: the “toxicity to the ocular tissue” value in data set [3] (contact lens, 400 ppb HGH soak) is “no toxicity was observed”. Moreover, in data set [3] (setting [8]), the “inflammation compared to control eyes” value was “reduction in inflammation” and the “wound healing compared to control eyes” value is reported as “increased wound healing”.
